From patent US4975370A, “Process for preparing 14-hydroxy-6-O-methyl-erythromycin A” (Taisho Pharmaceutical Co., Ltd., priority 1986, dated 1990) come the findings set out here.

Values after ≈ are worked out from the molar mass of the structure shown.

For orientation: LD50 means the dose expected to kill half of the subjects tested. Higher therefore signals a less toxic substance.

Series [1] has as its system Staphylococcus aureus BB. Put plainly: In vivo antibacterial test, experimental infection in mouse. Particulars: Staphylococcus aureus BB infection (intraperitoneal), male ICR mice 26±1 g, drug orally, 7 days observation, probit analysis. The procedure:
(§1) The in vivo antibacterial activity of 14-hydroxy-6-O-methylerythromycin A was measured by effect of treatment on experimental infectious diseases in mouse. 6-O-methylerythromycin A and erythromycin A were used as comparative drugs. Staphylococcus aureus BB and Streptococcus pneumoniae IID 553 were used as experimental infectious diseases of mouse. Ten male ICR mice, weighing 26±1 g, were used for each group to a different concentration of one drug. The bacteria were administered intraperitoneally to each groups of […] for infection. 14-hydroxy-6-O-methylerythromycin A, 6-O-methylerythromycin A and erythromycin A were administered orally to different groups of mice. After observing for 7 days, ED50 value was calculated from the number of mice serviving.
(§2) The ED50 values having 95% confidence limits were estimated by probit analysis.

Series [2] concerns Streptococcus pneumoniae IID 553. The series is described as above. The note with it: Streptococcus pneumoniae IID 553 infection (intraperitoneal), male ICR mice 26±1 g, drug orally, 7 days observation, probit analysis. How it is done:
as §1, §2

Series [3] has as its system Bacillus subtilis ATCC 6633. The experiment in a line: In vitro antibacterial activity (MIC method of the Japan Chemotherapeutic Society). It counts as cell-based. The note with it: ATCC6633, read-out: MIC (minimum inhibitory concentration). How it is done: (§3) The antibacterial activity (MIC: minimum inhibitory concentration) of 14-hydroxy-6-O-methylerythromycin A was measured according to the MIC method specified by the Japan Chemotherapeutic Society.

For the next series, the system named is Branhamella catarrhalis. The series is described as above. The note with it: Moraxella catarrhalis, read-out: MIC (minimum inhibitory concentration). Type of series: cell-based. How it is done: as §3
In series [4] the test system is Enterococcus faecalis ATCC 8043. The series is described as above. Type of series: cell-based. The note with it: ATCC8043, read-out: MIC (minimum inhibitory concentration). The procedure:
as §3

The test system of series [5] is Escherichia coli NIHJ JC-2. The series is described as above. It counts as cell-based. Particulars: NIHJJC2, read-out: MIC (minimum inhibitory concentration). The procedure:
as §3

The subject of series [6] is Haemophilus influenzae J-48. The series is described as above. Type of series: cell-based. The note with it: J48, read-out: MIC (minimum inhibitory concentration). How it is done:
as §3

The test system of series [7] is Klebsiella pneumoniae IFO 3317. The series is described as above. Type of series: cell-based. The note with it: IFO3317, read-out: MIC (minimum inhibitory concentration). How it is done: as §3
Series [8] concerns Micrococcus luteus ATCC 9341. Described as above. Particulars: ATCC9341, read-out: MIC (minimum inhibitory concentration). It counts as cell-based. How it is done: as §3
The subject of another series is Micrococcus luteus NIHJ. The series is described as above. It counts as cell-based. The note with it: read-out: MIC (minimum inhibitory concentration). The procedure: as §3
Series [9] has as its system Neisseria gonorrhoeae TCC-4. Described as above. It counts as cell-based. The note with it: TCC4, read-out: MIC (minimum inhibitory concentration). How it is done:
as §3

The next series deals with Salmonella enteritidis. The series is described as above. Particulars: Salmonella enterica, read-out: MIC (minimum inhibitory concentration). Type of series: cell-based. How it is done:
as §3

Series [10] relates to Staphylococcus aureus 209P-JC. Described as above. Type of series: cell-based. Particulars: read-out: MIC (minimum inhibitory concentration). How it is done: as §3
Series [11] deals with Staphylococcus aureus BB. The description is as above. It counts as cell-based. Particulars: read-out: MIC (minimum inhibitory concentration). The procedure:
as §3

The test system of series [12] is Staphylococcus aureus Smith 4. The series is described as above. Type of series: cell-based. Particulars: SMITH4, read-out: MIC (minimum inhibitory concentration). The procedure: as §3
Series [13] relates to Staphylococcus epidermidis IID 866. The series is described as above. Particulars: IID866, read-out: MIC (minimum inhibitory concentration). It counts as cell-based. How it is done:
as §3

Series [14] has as its system Staphylococcus pneumoniae IDD 552. The series is described as above. It counts as cell-based. Particulars: IDD552, read-out: MIC (minimum inhibitory concentration). The procedure: as §3
Series [15] deals with Staphylococcus pneumoniae IDD 553. Described as above. Type of series: cell-based. The note with it: IDD553, read-out: MIC (minimum inhibitory concentration). The procedure:
as §3

For series [16], the system named is Staphylococcus pyogenes IID 689. The series is described as above. It counts as cell-based. Particulars: Streptococcus pyogenes, IID689, read-out: MIC (minimum inhibitory concentration). The procedure:
as §3

The subject of series [17] is Gram-positive bacteria. Put plainly: In vivo antibacterial activity (general statement, effective amount).
Series [18] can be described thus: Acute toxicity (LD50) in ICR mice. The note with it: mouse, in vivo, intravenous administration.
A further series can be described thus: Solubility. It counts as physicochemical.
The subject of series [19] is Gram-positive bacteria. Put plainly: In vitro antibacterial activity (general statement). Type of series: cell-based.
Series [20] deals with Gram-negative bacteria, especially Neisseria gonorroeae and Haemophilus influenzae. The description is as above. Type of series: cell-based. The note with it: some Gram-negative bacteria.

With `CC[C@H]1OC(=O)[C@H](C)[C@@H](O[C@H]2C[C@@](C)(OC)[C@@H](O)[C@H](C)O2)[C@H](C)[C@@H](O[C@@H]2O[C@H](C)C[C@H](N(C)C)[C@H]2O)[C@](C)(O)C[C@@H](C)C(=O)[C@H](C)[C@@H](O)[C@]1(C)O` [Erythromycin A, erythromycin A], the values for the ED50 (with Staphylococcus aureus BB [1]; in series [2]) were 2.20 mg/mouse and 1.43 mg/mouse, respectively.

As to `CC[C@H]1OC(=O)[C@H](C)[C@@H](O[C@H]2C[C@@](C)(OC)[C@@H](O)[C@H](C)O2)[C@H](C)[C@@H](O[C@@H]2O[C@H](C)C[C@H](N(C)C)[C@H]2O)[C@](C)(OC)C[C@@H](C)C(=O)[C@H](C)[C@@H](O)[C@]1(C)O` [6-O-Methyl-erythromycin A, 6-O-methylerythromycin A], the ED50 is on record as 0.394 mg/mouse in the series with Staphylococcus aureus BB [1] and 0.222 mg/mouse in series [2].

For `CO[C@]1(C)C[C@@H](C)C(=O)[C@H](C)[C@@H](O)[C@](C)(O)[C@@H](C(C)O)OC(=O)[C@H](C)[C@@H](O[C@H]2C[C@@](C)(OC)[C@@H](O)[C@H](C)O2)[C@H](C)[C@H]1O[C@@H]1O[C@H](C)C[C@H](N(C)C)[C@H]1O` (stereo partly drawn) [14-hydroxy-6-O-methylerythromycin A], the MIC was determined as 0.1 µg/mL (≈ 0.131 µM) in [3]; 0.05 µg/mL (≈ 0.0654 µM) with Branhamella catarrhalis; 0.05 µg/mL (≈ 0.0654 µM) in series [4]; 50 µg/mL (≈ 65.4 µM) in series [5]; 3.13 µg/mL (≈ 4.1 µM) in [6]; 25 µg/mL (≈ 32.7 µM) in series [7]. The MIC worked out at 0.025 µg/mL (≈ 0.0327 µM) in series [8]; 0.05 µg/mL (≈ 0.0654 µM) in the series on Micrococcus luteus NIHJ; 0.39 µg/mL (≈ 0.51 µM) in [9]; 25 µg/mL (≈ 32.7 µM) in the series on Salmonella enteritidis; 0.1 µg/mL (≈ 0.131 µM) in series [10]; 0.2 µg/mL (≈ 0.262 µM) in the series on Staphylococcus aureus BB [11]. Further, the MIC turned out to be 0.2 µg/mL (≈ 0.262 µM) in series [12]; 0.2 µg/mL (≈ 0.262 µM) in [13]; 0.025 µg/mL (≈ 0.0327 µM) in [14]; 0.025 µg/mL (≈ 0.0327 µM) in [15]; 0.025 µg/mL (≈ 0.0327 µM) in [16]. Further, the values for the ED50 (in the series with Staphylococcus aureus BB [1]; in series [2]; with Gram-positive bacteria [17] (general statement)) were 0.234 mg/mouse, 0.069 mg/mouse and 3 to 10 mg/kg, respectively. In addition, the “in vivo antibacterial activity against some Gram-positive bacteria” value in the series on Gram-positive bacteria [17] (compared with 6-O-methylerythromycin A) is “stronger”. This compound gave an LD50 in [18] of 560 mg/kg. For the same compound, the Solubility entry in the series “Solubility” (in chloroform, methanol, ethanol, acetone, ethyl acetate and pyridine) is reported as “Soluble”; in “Solubility” (in ethyl ether, n-hexane, petroleum ether, benzene and water) it was “Poorly soluble”. The “in vitro antibacterial activity” value (with Gram-positive bacteria [19]; in series [20]) was “strong” each time.
